Assay results as given in patent publication US20150223453A1, “QUATERNARY AMMONIUM ACID COMPOUNDS AND COMPOSITIONS FOR DISINFECTION, SANITIZATION, AND CLEANING” (LONZA INC., priority 2014, published 2015).

Tested on: Pa
Test: OECD Quantitative Method for Evaluating Bactericidal Activity of Microbiocides Used on Hard, Non-Porous Surfaces
Assay type: cell-based, Pseudomonas aeruginosa
Details: for level of efficacy / number of organisms reduced (in words): quaternary ammonium acid compounds based on different acids, summary of the OECD tests
Text: One acknowledged method for determining micro efficacy is the OECD (Organisation for Economic Co-operation and Development) Quantitative Method for Evaluating Bactericidal Activity of Microbiocides Used on Hard, Non-Porous Surfaces. This method entails inoculating small, stainless steel disks called carriers with inoculum, in the presence of hard water. It is theorized that microorganisms, such as pseudomonas, form a biofilm on these carriers. Due to the size of the disk, the presence of a biofilm and the surface tension of the liquid on the disk, this requires qua-based systems to be generally over-formulated to achieve the required efficacy to pass testing. This provides an unfair advantage to both acids and oxidizers used as biocides because of their innate ability to oxidize steel, remove the biofilm without being affected by hard water. This invention combats this issue by combining the biocidal power of quaternary ammonium compound with the oxidizing power of acid.

[1] = 800 ppm Active/375 ppm Hard Water/5% Organic Soil/5 Minute Contact Time

| Molecule | OECD results of Quaternium Ammonium Acid Molecule, Test 1 [1] | OECD results of Quaternium Ammonium Acid Molecule, Test 2 [1] | level of efficacy / number of organisms reduced (in words) | also measured |
| --- | --- | --- | --- | --- |
| CCCCCCCCCC[N+](C)(C)CCCCCCCCCC.O=C([O-])CO [Glycolic] | 1.99 | – | – | – |
| O=P(O)(O)O [Phosphoric] | – | 4.93 | greatest level of efficacy | level of efficacy / number of organisms reduced (in words) (listed as phosphoric acid): highest number of organisms reduced |
| Sulfuric | 3.14 | – | – | – |
| CC(=O)[O-].CCCCCCCCCC[N+](C)(C)CCCCCCCCCC [Acetic] | 5.71 | 4.93 | greatest level of efficacy | level of efficacy / number of organisms reduced (in words) (listed as acetic acid): highest number of organisms reduced |
| didecyl dimethyl ammonium carbonate/bicarbonate [Quat Carbonate, reference compound] | – | – | – | Log10 Reduction vs. Pa (Quaternium Ammonium Chloride in Acid Solution, 800 ppm Active/375 ppm Hard Water/5% Organic Soil/5 Minute Contact Time): <2.82 Log10 |
| O=C(O)C(O)C(O)C(=O)O (stereo not drawn) [Tartaric] | 4.22 | 3.05 | greatest level of efficacy | level of efficacy / number of organisms reduced (in words) (listed as tartaric acid): highest number of organisms reduced |
| CCCCCCCCCC[N+](C)(C)CCCCCCCCCC.NS(=O)(=O)[O-] [Sulfamic] | 4.66 | – | greatest level of efficacy | level of efficacy / number of organisms reduced (in words) (listed as sulfamic acid): highest number of organisms reduced |
| CCCCCCCCCC[N+](C)(C)CCCCCCCCCC.O=[N+]([O-])[O-] [Nitric] | 1.94 | – | – | – |
| Oxalic | 5.54 | – | greatest level of efficacy | level of efficacy / number of organisms reduced (in words) (listed as oxalic acid): highest number of organisms reduced |
